This note sets out measurements from ChEMBL document CHEMBL4219173, “2,4-Diamino-8-quinazoline carboxamides as novel, potent inhibitors of the NAD hydrolyzing enzyme CD38: Exploration of the 2-position structure-activity relationships” (Bioorg Med Chem, 2018).

The structures appear in SMILES notation. pIC50: −log10 of the molar value. ≈ marks a conversion by molar mass, not a printed value.

For data set [1], the target named is T1, ADP-ribosyl cyclase/cyclic ADP-ribose hydrolase 1 (Homo sapiens, UniProt P28907).
T1 sequence (P28907 whole entry): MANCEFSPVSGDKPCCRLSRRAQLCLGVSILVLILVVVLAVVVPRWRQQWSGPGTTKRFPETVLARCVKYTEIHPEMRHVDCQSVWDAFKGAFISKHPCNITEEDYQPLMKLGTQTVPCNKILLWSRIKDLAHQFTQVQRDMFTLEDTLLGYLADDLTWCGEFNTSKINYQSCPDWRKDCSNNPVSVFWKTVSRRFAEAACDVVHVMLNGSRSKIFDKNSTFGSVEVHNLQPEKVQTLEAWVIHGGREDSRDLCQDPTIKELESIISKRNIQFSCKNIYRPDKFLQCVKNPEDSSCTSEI
Description: Inhibition of recombinant human CD38 extracellular domain expressed in Pichia pastoris using NAD as substrate pretreated for 30 mins followed by substrate addition measured after 15 to 45 mins.

Data set [2] can be described thus: Aqueous solubility of the compound in FaSSIF. Format: physicochemical.
The target of data set [3] is Voltage-gated inwardly rectifying potassium channel KCNH2 (Homo sapiens, UniProt Q12809). Description: Inhibition of human ERG.
Voltage-gated inwardly rectifying potassium channel KCNH2, sequence (Q12809 whole entry): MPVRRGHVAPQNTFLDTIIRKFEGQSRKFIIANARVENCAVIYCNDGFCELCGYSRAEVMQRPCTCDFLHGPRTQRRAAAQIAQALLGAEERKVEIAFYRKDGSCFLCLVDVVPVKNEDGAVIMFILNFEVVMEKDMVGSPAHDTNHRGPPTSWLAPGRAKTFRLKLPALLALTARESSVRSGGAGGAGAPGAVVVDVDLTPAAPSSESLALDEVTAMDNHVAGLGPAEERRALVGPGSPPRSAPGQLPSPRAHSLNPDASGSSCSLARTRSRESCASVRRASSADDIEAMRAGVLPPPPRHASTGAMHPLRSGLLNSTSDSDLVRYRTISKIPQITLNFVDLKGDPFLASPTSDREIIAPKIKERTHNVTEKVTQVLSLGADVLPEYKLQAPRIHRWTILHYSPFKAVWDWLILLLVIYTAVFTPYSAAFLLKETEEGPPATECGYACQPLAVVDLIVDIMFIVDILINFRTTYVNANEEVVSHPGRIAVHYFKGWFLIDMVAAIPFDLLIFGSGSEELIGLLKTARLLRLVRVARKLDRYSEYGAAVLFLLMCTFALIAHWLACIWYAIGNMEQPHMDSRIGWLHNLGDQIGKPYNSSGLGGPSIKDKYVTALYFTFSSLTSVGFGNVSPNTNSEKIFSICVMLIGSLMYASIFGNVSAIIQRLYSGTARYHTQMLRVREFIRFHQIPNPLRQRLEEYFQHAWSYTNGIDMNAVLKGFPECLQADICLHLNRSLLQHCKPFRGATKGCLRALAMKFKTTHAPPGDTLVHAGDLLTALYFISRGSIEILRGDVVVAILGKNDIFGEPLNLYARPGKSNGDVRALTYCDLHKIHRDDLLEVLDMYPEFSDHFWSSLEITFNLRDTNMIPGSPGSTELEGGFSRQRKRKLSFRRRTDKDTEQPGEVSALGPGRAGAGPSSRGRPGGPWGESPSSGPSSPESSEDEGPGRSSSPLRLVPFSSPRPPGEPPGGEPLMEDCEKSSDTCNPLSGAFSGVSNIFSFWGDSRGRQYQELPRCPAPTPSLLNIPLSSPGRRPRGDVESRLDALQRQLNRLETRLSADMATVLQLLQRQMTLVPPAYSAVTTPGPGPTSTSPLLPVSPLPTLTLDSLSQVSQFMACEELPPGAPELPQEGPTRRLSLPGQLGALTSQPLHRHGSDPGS
For the next data set, the target named is Cytochrome P450 3A4 (Homo sapiens, UniProt P08684). Description: Inhibition of CYP3A4 (unknown origin). In kind it is ADME.
Cytochrome P450 3A4, sequence (P08684 whole entry): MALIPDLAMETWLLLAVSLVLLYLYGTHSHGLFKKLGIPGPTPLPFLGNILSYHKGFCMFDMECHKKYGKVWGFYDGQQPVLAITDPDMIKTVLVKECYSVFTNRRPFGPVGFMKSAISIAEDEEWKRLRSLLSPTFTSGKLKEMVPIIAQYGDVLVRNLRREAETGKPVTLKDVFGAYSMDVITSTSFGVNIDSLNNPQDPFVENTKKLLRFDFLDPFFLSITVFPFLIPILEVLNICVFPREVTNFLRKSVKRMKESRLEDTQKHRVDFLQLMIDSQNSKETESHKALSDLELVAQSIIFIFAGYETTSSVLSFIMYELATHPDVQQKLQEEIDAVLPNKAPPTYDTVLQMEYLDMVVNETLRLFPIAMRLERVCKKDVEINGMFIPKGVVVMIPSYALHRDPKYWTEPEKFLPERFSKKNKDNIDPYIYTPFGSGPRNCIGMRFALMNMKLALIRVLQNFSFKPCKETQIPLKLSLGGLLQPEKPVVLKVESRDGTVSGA
Data set [4] can be described thus: Lipophilicity, log D of the compound by chromatographic method. Format: physicochemical.
Data set [5] can be described thus: Half life in mouse at 2 mg/kg, iv. Format: ADME, organism-based. The note with it: in vivo.
A short description of data set [6]: Oral bioavailability in mouse at 30 mg/kg. Format: ADME, organism-based. The note with it: in vivo.
A short description of data set [7]: Clearance in mouse at 2 mg/kg, iv. In kind it is ADME, organism-based. The note with it: in vivo.
In a further data set the test system is Mus musculus. Description: Dose normalized AUC in mouse at 30 mg/kg, po. The note with it: in vivo. Format: ADME, organism-based.
A short description of data set [8]: Volume of distribution at steady state in mouse at 2 mg/kg, iv. In kind it is ADME, organism-based. The note with it: in vivo, read-out: Vdss.
The nature of data set [9]: Permeability of the compound by PAMPA. Format: ADME. The note with it: read-out: permeability. (The PAMPA barrier holds no transporters, so it reflects passive diffusion.)

Consider `Cc1n[nH]c2c1CN(C1=NC(NCc3c(F)cccc3C(F)(F)F)c3cccc(C(N)=O)c3N1)[C@H]2C` (some centres not stated), for which, in [1], the pIC50 was 6.77.
In data set [2], `C[C@H](O)c1n[nH]c2c1CN(C1=NC(NCc3c(F)cccc3C(F)(F)F)c3cccc(C(N)=O)c3N1)C2` (some centres not stated) yielded a solubility of 12 µg/mL (≈ 23.2 µM). The pIC50 in data set [1] is 6.96.
As for `Cc1n[nH]cc1CNc1nc(NCc2c(F)cccc2C(F)(F)F)c2cccc(C(N)=O)c2n1`, the negative-log IC50 (pIC50) in [1] was 6.21.
Still for that read-out and setting: the same measure for `CC[C@@H]1c2[nH]ncc2CN1C1=NC(NCc2c(F)cccc2C(F)(F)F)c2cccc(C(N)=O)c2N1` (some centres not stated): 7.15.
With `Cc1n[nH]c2c1CN(C1=NC(NCc3c(F)cccc3C(F)(F)F)c3cccc(C(N)=O)c3N1)C2` (configuration not stated), the pIC50 is 4.90 in data set [3], 7.38 in data set [1] and 6.20 against Cytochrome P450 3A4.
For `NC(=O)c1cccc2c(NCc3c(F)cccc3C(F)(F)F)nc(N3CCc4[nH]ncc4C3)nc12`, the pIC50 in data set [1] was 6.20.
For `NC(=O)c1cccc2c1NC(N1Cc3[nH]nc(C(F)(F)F)c3C1)=NC2NCc1c(F)cccc1C(F)(F)F` (configuration not stated), in [1], the pIC50 is 5.39.
For `Cn1ncc2c1CN(C1=NC(NCc3c(F)cccc3C(F)(F)F)c3cccc(C(N)=O)c3N1)C2` (configuration not stated), the solubility in data set [2] was found to be 2 µg/mL (≈ 4.1 µM). Also, the pIC50 in [1] is 7.09.
Turning to `CC1(C)c2[nH]nc(N)c2CN1C1=NC(NCc2c(F)cccc2C(F)(F)F)c2cccc(C(N)=O)c2N1` (configuration not stated), the pIC50 in data set [1] was 7.70.
Still for that read-out and setting: as for `NC(=O)c1c(C(F)(F)F)ccc2c(NCc3c(F)cccc3C(F)(F)F)nc(NCc3ncco3)nc12`, the figure is 5.38.
Same read-out and setting: the same measure for `NC(=O)c1cccc2c(NCc3c(F)cccc3C(F)(F)F)nc(NCc3cnco3)nc12`: 5.47; for `CCc1n[nH]c2c1CN(C1=NC(NCc3c(F)cccc3C(F)(F)F)c3cccc(C(N)=O)c3N1)C2` (configuration not stated): 7.08; for `NC(=O)c1cccc2c(NCc3c(F)cccc3C(F)(F)F)nc(NCc3nc[nH]n3)nc12`: 5.37.
On the same count and under the same terms, as for `C[C@@H]1c2[nH]nc(N)c2CN1C1=NC(NCc2c(F)cccc2C(F)(F)F)c2cccc(C(N)=O)c2N1` (some centres not stated), the figure is 7.35; as for `CN(Cc1ccn[nH]1)c1nc(NCc2c(F)cccc2C(F)(F)F)c2cccc(C(N)=O)c2n1`, 5.72.
The compound `Cc1cc(NCc2c(F)cccc2C(F)(F)F)c2cccc(C(N)=O)c2n1` came in with a chromatographic logD in data set [4] of 5.1.
As to `C[C@H]1c2cn[nH]c2CN1C1=NC(NCc2c(F)cccc2C(F)(F)F)c2cccc(C(N)=O)c2N1` (some centres not stated), in [1], the pIC50 was 5.60.
Still for that read-out and setting: the same measure for `C[C@H]1c2[nH]nc(N)c2CN1C1=NC(NCc2c(F)cccc2C(F)(F)F)c2cccc(C(N)=O)c2N1` (some centres not stated): 6.51; for `C[C@H]1c2n[nH]cc2CN1C1=NC(NCc2c(F)cccc2C(F)(F)F)c2cccc(C(N)=O)c2N1` (some centres not stated): 6.39.
Take `NC(=O)c1cccc2c1NC(N1Cc3c(N)n[nH]c3C13CCC3)=NC2NCc1c(F)cccc1C(F)(F)F` (configuration not stated): in data set [1], the pIC50 was 8.11.
Regarding `NC(=O)c1cccc2c(NCc3c(F)cccc3C(F)(F)F)nc(NCc3c[nH]cn3)nc12`, in [1], the pIC50 is 5.80.
Same read-out and setting: the same measure for `NC(=O)c1cccc2c1NC(N1Cc3c(N)n[nH]c3C13CCCC3)=NC2NCc1c(F)cccc1C(F)(F)F` (configuration not stated): 7.77; for `NC(=O)c1cccc2c1NC(N1Cc3[nH]nc(N)c3C1)=NC2NCc1c(F)cccc1C(F)(F)F` (configuration not stated): 6.96.
For the compound `NC(=O)c1cccc2c(NCc3c(F)cccc3C(F)(F)F)nc(N3CCc4cn[nH]c4C3)nc12`, the pIC50 in [1] was 5.72.
`NC(=O)c1cccc2c(NCc3c(F)cccc3C(F)(F)F)nc(N3Cc4cn[nH]c4C3)nc12`: the solubility in data set [2] is 6 µg/mL (≈ 12.7 µM). Further, the pIC50 in [1] is 7.04.
With `NC(=O)c1cccc2c(NCc3c(F)cccc3C(F)(F)F)nc(NCc3ccon3)nc12`, the pIC50 in data set [1] was 5.26.
`NC(=O)c1cccc2c1NC(N1CCCc3cn[nH]c3C1)=NC2NCc1c(F)cccc1C(F)(F)F` (configuration not stated): in data set [1], the pIC50 was 4.72.
On the same count and under the same terms, as for `NC(=O)c1cccc2c(NCc3c(F)cccc3C(F)(F)F)cc(NCc3cn[nH]c3)nc12`, the figure is 7.14; as for `Cc1n[nH]c2c1CN(C1=NC(NCc3c(F)cccc3C(F)(F)F)c3cccc(C(N)=O)c3N1)[C@@H]2C` (some centres not stated), 7.68.
In data set [2], `C[C@@H](O)c1n[nH]c2c1CN(C1=NC(NCc3c(F)cccc3C(F)(F)F)c3cccc(C(N)=O)c3N1)C2` (some centres not stated) had a solubility of 11 µg/mL (≈ 21.3 µM). The negative logarithm of the IC50 (pIC50) in data set [1] is 6.64.
As to `NC(=O)c1cccc2c(NCc3c(F)cccc3C(F)(F)F)nc(NCc3ncc[nH]3)nc12`, the pIC50 in data set [1] is 5.17.
`Cn1cc2c(n1)CN(C1Nc3c(C(N)=O)cccc3C(NCc3c(F)cccc3C(F)(F)F)N1)C2` (configuration not stated): the pIC50 in [1] was 6.80.
Still for that read-out and setting: as for `NC(=O)c1cccc2c1NC(N1Cc3[nH][nH]c(=O)c3C1)=NC2NCc1c(F)cccc1C(F)(F)F` (configuration not stated), the figure is 5.80.
In the case of `NC(=O)c1cccc2c1NC(N1Cc3c(N)n[nH]c3C13CC3)=NC2NCc1c(F)cccc1C(F)(F)F` (configuration not stated), the chromatographic logD in [4] was 3.9. Besides, in [1], the pIC50 is 8.40.
Take `CC(=O)c1n[nH]c2c1CN(C1=NC(NCc3c(F)cccc3C(F)(F)F)c3cccc(C(N)=O)c3N1)C2` (configuration not stated): the pIC50 in data set [1] is 6.85.
On the same count and under the same terms, the same measure for `NC(=O)c1cccc2c(NCc3c(F)cccc3C(F)(F)F)nc(NCc3ccn[nH]3)nc12`: 5.64; for `C[C@@H]1c2cn[nH]c2CN1C1=NC(NCc2c(F)cccc2C(F)(F)F)c2cccc(C(N)=O)c2N1` (some centres not stated): 6.48.
Take `CC[C@H]1c2[nH]ncc2CN1C1=NC(NCc2c(F)cccc2C(F)(F)F)c2cccc(C(N)=O)c2N1` (some centres not stated): the pIC50 in data set [1] is 6.43.
The same measure, in the same setting: the same measure for `NC(=O)c1cccc2c(NCc3c(F)cccc3C(F)(F)F)nc(NCc3cn[nH]c3)nc12`: 6.35; for `NC(=O)c1cccc2c(NCc3c(F)cccc3C(F)(F)F)nc(NCc3nnn[nH]3)nc12`: 5.10.
`C[C@@H]1c2n[nH]cc2CN1C1=NC(NCc2c(F)cccc2C(F)(F)F)c2cccc(C(N)=O)c2N1` (some centres not stated) gave a half-life in data set [5] of 1.4 h. In addition, the values for the negative logarithm of the IC50 (pIC50) (in data set [3]; in [1]; against Cytochrome P450 3A4) were 5.50, 7.29 and 6.80, respectively. Further, the bioavailability in data set [6] is 69%. For the same compound, the clearance in [7] stood at 37 mL/min/kg. The solubility in data set [2] is 34 µg/mL (≈ 69.7 µM). In the data set on Mus musculus, the AUC/dose is 327 ng·h/mL/(mg/kg). Moreover, the Vd in data set [8] stood at 2.7 L/kg. In data set [9], the Papp stood at 14.7 ×10⁻⁶ cm/s.

One may read the pIC50 as the IC50 on a negative log10 scale, so that one unit is a factor of ten. In general, solubility refers to the dissolved amount per volume that the medium holds. What is called chromatographic logD is a lipophilicity value derived from retention on a column. In general, half-life refers to how long it takes for the measured level to halve. A low value points to fast loss. In general, bioavailability refers to the share of a dose that reaches the circulation, judged against a reference dose that is usually intravenous. The term clearance denotes the rate of elimination divided by the concentration. High values mean a high capacity for elimination, low ones a low capacity for elimination.
